Measurements: patent US11707442B2, “Antibacterial and antifungal compounds” (The General Hospital Corporation, priority 2015, dated 2023)
Values after ≈ are worked out from the molar mass of the structure shown. “Also recorded” adds a separate entry of the source. Like-named read-outs stand apart in the source and are kept apart here.

Assays:
A. baumannii = experiment: Disc clearing assay; format: cell-based, Acinetobacter baumannii; settings: result in words
Procedure: (§1) Disc clearing assay: The disc diffusion test was performed on Mueller Hinton (MH) agar plates for bacterial cultures and yeast extract, peptone, dextrose (YPD) for fungal cultures. The assay was repeated 3 times. Discs were soaked in 10 μl of either DMSO or 10 mg/ml compound stock solution and air-dried. Three hundred microliters of an overnight culture of bacteria or fungi were spread on plates. After completely drying the agar plate in a laminar flow hood, DMSO or compound impregnated discs were overlaid on the plate and incubated at 35° C. for 18 hrs.

S. aureus [1] = experiment: Minimal inhibitory concentration (MIC), broth microdilution; format: cell-based, Staphylococcus aureus; settings: for MIC: Staphylococcus aureus, read-out: MIC
Procedure, shortened: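 MIC values against methicillin-resistant Staphylococcus aureus were determined by standard broth microdilution following Clinical and Laboratory Standards Institute guidance (CLSI document M07-A8). Each well held 100 μl of test compound plus bacterial cells in MH broth, with the starting OD600 set to 0.03. Plates were incubated 18 hrs at 35° C. and absorbance was then read at 595 nm.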

K. pneumoniae = experiment: Disc clearing assay; format: cell-based, Klebsiella pneumoniae; settings: result in words
Procedure: as §1

HepG2 cells = experiment: Toxicity assay with HepG2 liver cells (WST-1); format: cell-based; settings: 24 hours; result in words
Procedure: HepG2 cells were cultured in Dulbecco's modified Eagle medium (DMEM) containing 10% fetal bovine serum, 25 mM D-glucose, 2 mM L-glutamine, 1 mM sodium pyruvate and 1% penicillin/streptomycin and maintained at 37° C. in 5% CO2. For the toxicity test, HepG2 were cultured at 70-80% confluence in 96-well plates in a volume of 100 μl/well culture medium. Serially diluted chemical compounds were incubated with the cells at 37° C. in 5% CO2 for 24 hours. Ten microliters of 4-(3-(4-iodophenyl)-2-(4-nitrophenyl)-2H-5-tetrazolio)-1,3-benzene disulfonate (WST-1) solution were added per well for the last 4 hours of the 24 hours period. WST-1 reduction was detected using absorbance at 490 nm by a Vmax microplate reader. The percent […] relative to that of the no-treatment control was calculated. The assay was done in triplicate.

P aeruginosa = experiment: Disc clearing assay; format: cell-based, Pseudomonas aeruginosa; settings: result in words
Procedure: as §1

human erythrocytes = experiment: Human blood hemolysis; format: cell-based; settings: increasing concentrations; result in words
Procedure: Human blood hemolysis. Hemolytic activity of retinoids on human erythrocytes was evaluated using a previously described method with modifications (Rajamuthiah, R. et al. A defensin from the model beetle Tribolium castaneum acts synergistically with telavancin and daptomycin against multidrug resistant Staphylococcus aureus. PLoS ONE 10, e0128576 (2015)). 10% human erythrocytes were purchased from Rockland Immunochemicals (Limerick, Pa., USA). The erythrocytes were diluted to 4% with PBS, and 100 μl was added to 100 μl of two-fold serial dilutions of compounds in PBS, 0.2% DMSO (negative control), or 2% Triton-X 100 (positive control) in a 96-well plate. The 96-well plate was incubated at 37° C. for 1 h and then centrifuged at 500×g for 5 min. 100 μl of the supernatant was transferred to a fresh 96-well plate, and absorbance of supernatants was measured at 540 nm. Percent hemolysis was calculated using the following equation: (A540 nm of compound treated sample—A540nm of 0.1% DMSO treated sample)/(A540 nm of 1% Triton X-100 treated sample—A540nm of 0.1% DMSO treated sample)×100. HC50 (concentration of a compound causing 50% hemolysis) was determined using SigmaPlot 10.0 (Systat Software Inc., San Jose, Calif., USA).
In a 96 well plate, 50 μl of 2% human erythrocytes suspended in PBS was added to 50 μl of compounds serially diluted in PBS and incubated at 37° C. for 1 hour. The plate was then centrifuged at 500 G for 5 minutes and 50 μl of the supernatant from each well of the assay plate was transferred to a fresh 96 well plate. Hemolysis was confirmed by both visual observation and measuring absorbance at 540 nm. Treatment was conducted in triplicate.
2% human erythrocytes were treated with two-fold serially diluted concentration of the retinoids for 1 h at 37° C. A sample treated with 1% Triton-X 100 was used as the control for 100% hemolysis. Results are shown as means±s.d.; n=3.

E. faecium [2] = experiment: Disc clearing assay; format: cell-based, Enterococcus faecium; settings: result in words
Procedure: as §1

E. spp. = experiment: Disc clearing assay; format: cell-based, Enterobacter sp.; settings: result in words
Procedure: as §1

[3] = Checkerboard assay of auranofin with amphotericin B and fluconazole; format: cell-based; settings: result in words
Procedure: (§2) Checkerboard assay (e.g., antibiotic synergy test): The antimicrobial or antifungal activity of a combination of a compound of present application with other agents was determined through a checkerboard assay. The checkerboard method for determining synergy of synthetic retinoids with conventional antibiotics can be conducted, for example, as previously described (See, e.g., Rajamuthiah, R. et al. A defensin from the model beetle Tribolium castaneum acts synergistically with telavancin and daptomycin against multidrug resistant Staphylococcus aureus. PLoS ONE 10, e0128576 (2015)) The compounds whose combinations were being tested were arrayed in serial concentrations, vertically for one compound and horizontally for the other compound in the same 96 well microplate. 2-fold serial dilutions of each retinoid were combined with 2-fold serial dilutions of each conventional antibiotic, which created an 8×8 matrix in a 96-well microtiter plate. The rest of the procedure involving addition of pathogen and measurement of growth was carried out as described for measurement of MIC.
(§3) The Fractional Inhibitory Concentration (FIC) index for two compounds, A and B, is defined by the following equation: FIC=((A/MIC^A)+(B/MIC^B)). MIC^A and NIC^B are MICs of compound A or B respectively. […]

MRSA strain MW2 = experiment: Checkerboard assay (combination); format: cell-based, Staphylococcus aureus; settings: result in words
Procedure: as §2
The Fractional Inhibitory Concentration (FIC) index for two compounds, A and B, is defined by the following equation: FIC=((A/MIC^A)+(B/MIC^B)). MIC^A and NIC^B are MICs of compound A or B respectively. (A) is the lowest concentration of compound A in combination with compound B that inhibits growth of a pathogen and (B) is the lowest concentration of compound B that inhibits growth of a pathogen.
Optical densities at 600 nm were measured after 18 h of incubation at 37° C. The results represent three independent experiments.

C. tropicalis = experiment: Disc clearing assay; format: cell-based, Candida tropicalis; settings: result in words
Procedure: as §1

C. neoformans [4] = experiment: Disc clearing assay; format: cell-based, Cryptococcus neoformans; settings: impregnated filter; result in words
Procedure: as §1

C. albicans biofilm = experiment: Biofilm growth on silicone pads; format: cell-based, Candida albicans; settings: result in words
Procedure: C. albicans were grown in YPD medium overnight at 30° C., diluted to an OD600 of 0.5 in 2 mL Spider medium, and added to a well of a sterile 12-well plate containing a silicone pad measuring 1.5×1.5 cm that had been pretreated overnight with bovine serum (Sigma-Aldrich). The inoculated 12-well plate was incubated with gentle agitation (150 rpm) for 90 min at 37° C. for adhesion to occur. The samples were washed with 2 ml PBS, and after the 90-min incubation, and PBS wash, auranofin was added to fresh media at 4 μg/ml (n=4), 8 μg/ml (n=4), 16 μg/ml (n=4), and 32 μg/ml (n=4).
Control groups were included that contained C. albicans alone in Spider medium without auranofin (n=4) and a negative control group of Spider medium without any fungal cells (n=4).
The silicone pads with biofilm were removed from the wells, dried overnight, and weighed the following day. The total biomass (mg) of each biofilm was calculated by subtracting the weight of the platform material prior to biofilm growth from the weight after the drying period and adjusting for the weight of a control pad exposed to no cells.
Statistical significance among the different groups was determined by the analysis of variance (ANOVA) and the Tukey test using the Graph Pad Prism Program.

[5] = test system: S. aureus, E. faecium, and A. baumannii; experiment: Static versus cidal assessment (MBC); format: cell-based; settings: result in words
Procedure: Static versus cidal assessment: The minimum bactericidal concentration (MBC) was determined as follows: 10 μl of bacterial culture from each micro-well of the MIC assay was plated on MH agar and incubated at 35° C. overnight. The lowest compound concentration at which there was no bacterial colony growth was considered the MBC.

S. aureus [6] = experiment: Disc clearing assay; format: cell-based, Staphylococcus aureus; settings: result in words
Procedure: as §1
The disc diffusion test was carried out in triplicate on cation-adjusted Miller-Hinton agar. 6 mm discs were impregnated with 50 μg of compounds and air-dried. Three hundred microliters of an overnight S. aureus MW2 culture was spread on an agar plate and air-dried. The antimicrobial discs were overlaid on the plate and incubated at 37° C. for 20 hrs.

C. neoformans [7] = experiment: Checkerboard assay with oxidizing agents; format: cell-based, Cryptococcus neoformans; settings: result in words
Procedure: as §2, §3

C. albicans = experiment: Static versus cidal assessment (MFC); format: cell-based, Candida albicans; settings: result in words
Procedure: The minimum fungicidal concentration was (MFC) was determined as follows: 10 μl of yeast culture from each micro-well of the MIC assay was plated on YPD agar and incubated at 35° C. overnight. The lowest compound concentration at which there was no fungal colony growth was considered the MFC.

E. faecalis = experiment: Disc clearing assay; format: cell-based, Enterococcus faecalis; settings: result in words
Procedure: as §1

C. glabrata = experiment: Disc clearing assay; format: cell-based, Candida glabrata; settings: result in words
Procedure: as §1

B. subtilis = experiment: Disc clearing assay; format: cell-based, Bacillus subtilis; settings: result in words
Procedure: as §1

C. parapsilosis = experiment: Disc clearing assay; format: cell-based, Candida parapsilosis; settings: result in words
Procedure: as §1

E. faecium [8] = experiment: Checkerboard assay with glutathione; format: cell-based, Enterococcus faecium; settings: result in words
Procedure: as §2, §3

SMILES: CC1COc2c(N3CCN(C)CC3)c(F)cc3c(=O)c(C(=O)OCc4ccccn4)cn1c23 (stereo not shown) [Z3060, pyridin-2-ylmethyl 9-fluoro-3-methyl-10-(4-methylpiperazin-1-yl)-7-oxo-3,7-dihydro-2H-[1,4]oxazino[2,3,4-ij]quinoline-6-carboxylate]
- zone of inhibition, A. baumannii (A. baumannii): zone of inhibition
- MIC (S. aureus [1]; S. aureus (reference strain)): 2 µg/mL (≈ 4.42 µM)
- MIC (S. aureus [1]; clinical isolates of S. aureus (Z3060)): 1 to 2 µg/mL (≈ 2.21 to 4.42 µM)
- MIC change (S. aureus [1]; clinical isolates known to be drug resistant, result in words): increased
- zone of inhibition, K. pneumoniae (K. pneumoniae): zone of inhibition
- HepG2 cell viability (HepG2 cells): cell viability are maintained
- zone of inhibition, P aeruginosa (P aeruginosa): zone of inhibition
- toxicity (hemolysis) to erythrocytes (human erythrocytes): did not exhibit lysis
- zone of inhibition, E. faecium (E. faecium [2]): zone of inhibition
- zone of inhibition, E. spp. (E. spp.): zone of inhibition

SMILES: CC[P](CC)(CC)=[Au][S][C@@H]1O[C@H](COC(C)=O)[C@@H](OC(C)=O)[C@H](OC(C)=O)[C@H]1OC(C)=O [Auranofin, 2,3,4,6-tetra-o-acetyl-1-thio-D-glucanpyranosato-S-(triethyl-phosphine)-gold]
- interaction with amphotericin B and fluconazole [3]: additive effects but not synergism
- interaction with hydrogen peroxide (MRSA strain MW2; S. aureus): did not provide any synergistic activity
- zones of inhibition, C. tropicalis (C. tropicalis): zones of inhibition
- zone of inhibition, A. baumannii (A. baumannii): zone of inhibition
- clearing of C. neoformans (C. neoformans [4]): clearing
- C. albicans biofilm formation (C. albicans biofilm): not significantly reduced
- static versus cidal nature of the inhibition [5]: bacteriostatic at the MIC concentration but bactericidal at higher concentrations
- zone of inhibition, S. aureus (S. aureus [6]): zone of inhibition
- MIC change in the presence of menadione (C. neoformans [7]): no change in MIC
- interaction with diamide and hydrogen peroxide (C. neoformans [7]): additive effect
- static versus cidal activity against C. albicans (C. albicans): fungistatic
- zone of inhibition, E. faecalis (E. faecalis): clearing; also recorded: zone of inhibition
- zone of inhibition, E. faecium (E. faecium [2]): zone of inhibition
- zones of inhibition, C. glabrata (C. glabrata): zones of inhibition
- zone of inhibition, B. subtilis (B. subtilis): clearing; also recorded: zone of inhibition
- zones of inhibition, C. parapsilosis (C. parapsilosis): zones of inhibition

SMILES: N[C@@H](CCC(=O)N[C@@H](CS)C(=O)NCC(=O)O)C(=O)O [Glutathione]
- inhibition of S. aureus by the agent alone (MRSA strain MW2): did not inhibit
- inhibition of E. faecium by the agent alone (E. faecium [8]): did not inhibit
